Common to all, as to test: growth of human tumour cells (NCI), 48 h
Assay [1] relates to 786-0 renal.
For assay [2], the system named is A549 NSCLC.
The test system of assay [3] is CCRF-CEM leukemia.
The subject of assay [4] is COLO 205 colon.
Assay [5] concerns IGROV1 ovarian.
The test system of assay [6] is LOX IMVI melanoma.
In assay [7] the test system is M14 melanoma.
For assay [8], the system named is NCI-H460 lung.
The test system of assay [9] is SN12C renal.

“And” between values parts separate entries of the source, which are not always exact repeats. Equal values may be shown once.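 Interpolation was linear, between the two tested concentrations surrounding the appropriate level; five concentrations were tested over 48 hours in 96-well plates. At the GI50, growth is halved. At the TGI there is no net growth.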 Bounds are passed on as bounds.

As for `ClC1CCC2OOC1O2` (centres undefined), the TGI in assay [1], in [2], in [3], in assay [4], in assay [5] and in [6] was > 100 µM in each case. Further, the TGI in [7], in assay [8] and in [9] was > 100 µM throughout.

Regarding `C[C@@H](CO)OCOCc1ccccc1`, the TGI in [1], in assay [2], in assay [3], in assay [4], in [5] and in [6] was > 100 µM in each case. For the same compound, the TGI in [7], in assay [8] and in [9] was > 100 µM each time.

In the case of `Cc1oc2c(C)c(O)c3c(c2c1C1(C)OCCO1)C(=O)C=C(Cl)C3=O`, the TGI in assay [1], in [2], in [3], in [4], in assay [5] and in [6] was > 100 µM in each case. In addition, the TGI in assay [7], in [8] and in assay [9] was > 100 µM each time.

Consider `COc1cc2ccc3c4c(OC)cc(OC)c(OC)c4c(=O)n(C)c3c2cc1OC`, for which the GI50 in [1] is 1.78 µM; in assay [2], 1.18 µM; in assay [3], 0.486 µM; in assay [4], 1.3 µM; in assay [6] it was 1.53 µM; in [7], 2.28 µM. Besides, in [9], the GI50 is 0.532 µM. Besides, the TGI is 16.7 µM and > 35.8 µM in assay [2]; 2.04 µM in assay [3]; 4.09 µM and 9.95 µM in assay [4]; 16.7 µM and > 45.6 µM in assay [5]; 3.8 µM in [6]; 7.91 µM and > 33.9 µM in assay [7]. Moreover, the TGI in [8] is > 33.5 µM.

With `O=C(/C=C\c1cccc2ccccc12)c1cccs1`, the TGI in [1] was found to be 22.5 µM; in assay [2] it was 34.5 µM; in [3], 7.83 µM; in assay [4], 29.3 µM; in assay [5], 23.3 µM; in [7] it was 28.3 µM. The TGI in [8] was found to be 27.7 µM; in assay [9] it was 31.5 µM.

With `COC(=O)/C(C#N)=C1\CCC(O)N1C` (centres undefined), the TGI in [1], in assay [2], in [3], in assay [5], in [6] and in assay [7] was > 100 µM in each case. The TGI in assay [8] and in assay [9] was > 100 µM each time.

Consider `Nc1ncnc(NC2C=C(CO)C(O)C2O)c1[N+](=O)[O-]` (centres undefined), for which the TGI in [1], in [2], in [3], in assay [4], in assay [5] and in assay [6] was > 100 µM throughout. The TGI in assay [7], in [8] and in assay [9] was > 100 µM throughout.

`CN(C)C(=O)/N=c1\ss/c(=N\C(=S)N(C)C)n1-c1ccccc1`: the TGI in assay [1] was 47.1 µM; in [2], > 100 µM; in assay [3], > 48.8 µM; in assay [4], > 100 µM; in assay [5], > 100 µM; in assay [6], > 46 µM. In addition, the TGI is > 74.5 µM in assay [7], > 100 µM in assay [8] and > 100 µM in assay [9]. For the same compound, the GI50 in assay [2] is 0.0483 µM; in [4] it was 0.306 µM.

`Cc1ccccc1NC(=O)C(=O)C(c1cnc2ccc([N+](=O)[O-])cc2n1)[N+](=O)[O-]` (centres undefined): the TGI in assay [1], in assay [2], in assay [3], in assay [4], in assay [5] and in assay [6] was > 100 µM in each case. The TGI in assay [7], in [8] and in assay [9] was > 100 µM in each case.

Consider `N=C1N(c2ccccc2)C(=O)C23CCCC2C13N1CCOCC1` (centres undefined), for which the TGI in [1], in [2], in assay [3], in [4], in assay [5] and in [7] was > 100 µM each time. Also, the TGI in assay [8] and in assay [9] was > 100 µM throughout.

For `COC(=O)C(=O)C(C(=O)C(=O)Nc1ccc(Cl)cc1C)c1nc2ccc(C(=O)c3ccccc3)cc2[nH]c1=O` (centres undefined), the TGI in [1], in [2], in assay [3], in [4], in [5] and in [6] was > 100 µM each time. In addition, the TGI in assay [7], in assay [8] and in [9] was > 100 µM in each case.

As for `COc1cc(/C=C2\[C@H]3c4c(c(OC)c(C)c(OC)c4OC)C[C@@H](C(=O)N2Cc2ccccc2)N3C(=O)OC(C)C)c(OC)c(C)c1OC`, the TGI in [1], in assay [2], in [3], in [4], in [5] and in [6] was > 100 µM throughout. The TGI in [7], in assay [8] and in assay [9] was > 100 µM throughout.

In the case of `C=C[C@]1(C)CCC2=C(CCC3C2(C)CCC[C@]3(C)CO)C1` (some centres undefined), the TGI in [1] was > 100 µM; in assay [2], > 100 µM; in [3], > 100 µM; in [4] it was > 100 µM; in [5], > 100 µM; in assay [6], 68 µM. The TGI in assay [7] was > 100 µM; in assay [8] it was > 100 µM; in assay [9] it was 43.6 µM.

As to `COc1cc2nc(Sc3c([N+](=O)[O-])ncn3C)[nH]c2cc1OC`, the TGI is > 100 µM in [1]; > 100 µM in [2]; 30.2 µM in assay [4]; > 100 µM in assay [5]; > 100 µM in [6]; > 100 µM in assay [7]. Further, the TGI in [8] is > 100 µM; in assay [9], 41.5 µM.

Source of the values: PubChem BioAssay (NCI).
